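Following 48 hours of exposure in 96-well plates, responses at five concentrations were used to interpolate endpoints linearly. The concentration for 50% growth inhibition is given as GI50. TGI: total growth inhibition.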
Experiments:
Test in all cases: growth of human tumour cells (NCI), 48 h
A549 NSCLC = system: A549 NSCLC
CAKI-1 renal = system: CAKI-1 renal
COLO 205 colon = system: COLO 205 colon
HCT-116 colon = system: HCT-116 colon
HOP-62 NSCLC = system: HOP-62 NSCLC
MALME-3M melanoma = system: MALME-3M melanoma
MOLT-4 leukemia = system: MOLT-4 leukemia
SK-MEL-2 melanoma = system: SK-MEL-2 melanoma
SN12C renal = system: SN12C renal
TK-10 renal = system: TK-10 renal

SMILES | GI50 (A549 NSCLC) [nM] | TGI (A549 NSCLC) [µM] | GI50 (CAKI-1 renal) [nM] | TGI (CAKI-1 renal) [µM] | GI50 (COLO 205 colon) [nM] | TGI (COLO 205 colon) [µM] | GI50 (HCT-116 colon) [µM] | TGI (HCT-116 colon) [µM] | GI50 (HOP-62 NSCLC) [µM] | TGI (HOP-62 NSCLC) [µM] | GI50 (MALME-3M melanoma) [nM] | TGI (MALME-3M melanoma) [µM] | GI50 (MOLT-4 leukemia) [µM] | TGI (MOLT-4 leukemia) [µM] | GI50 (SK-MEL-2 melanoma) [nM] | TGI (SK-MEL-2 melanoma) [µM] | GI50 (SN12C renal) [µM] | TGI (SN12C renal) [µM] | GI50 (TK-10 renal) [µM] | TGI (TK-10 renal) [µM]
CC(C)C[C@H](NC(=O)[C@H](Cc1ccccc1)n1ccc(N2CCCCC2)cc1=O)B(O)O | 2390 | > 100 | 467 | 10 | 853 | > 100 | 0.343 | 2.55 | 2.63 | 9.29 | 682 | 7.95 | 0.308 | > 100 | 460 | 4.56 | 1.5 | 11.1 | 0.375 | 15.6
O=C1/C(=C/c2cccc([N+](=O)[O-])c2)COc2ccc(O)c(O)c21 | 2060 | 6.37 | 1270 | 2.59 | 1790 | 3.74 | 1.14 | 2.7 | 1.93 | 4.62 | 1490 | 3.04 | 2.12 | 12.1 | 2000 | 4.35 | 1.16 | 2.51 | 1.7 | 3.21
O=C(Nc1ccc(Cl)c([N+](=O)[O-])c1)Nc1nc2ccccc2s1 | 3370 | 13 | 2080 | 6.46 | 1780 | 3.39 | 3.57 | 14.9 | 3.21 | 12 | 2620 | 7.36 | 3.76 | 17.1 | 2370 | 5.32 | 3.74 | 19 | 4.26 | 12.8
CN1CCN(Cc2ccc(-c3cc4ncnc(Nc5ccc(OCc6cccc(F)c6)c(Cl)c5)c4s3)o2)CC1 | 3200 | 6.92 | 3330 | 7.98 | 4800 | 8.66 | 3.62 | 7.42 | 4.64 | 9.12 | 4560 | 9.69 | 4.47 | 9.39 | 5330 | 10.2 | 3.79 | 7.85 | 3.02 | 6.64
COc1cccc(N2C(=O)c3c(c4[nH]c5ccccc5c4c4ccc(C(C)(C)C)cc34)C2=O)c1 | – | > 100 | – | > 100 | – | > 100 | – | > 100 | – | > 100 | – | > 100 | – | > 100 | – | > 100 | – | > 100 | – | > 100
O=C(Nc1ccc(Cl)c(C(F)(F)F)c1)C(=O)C(C(=O)/C=C/c1ccccc1)C1OC(=O)c2ccccc21 (stereo not drawn) | – | > 100 | – | > 100 | – | > 100 | – | > 100 | – | > 100 | – | > 100 | – | > 100 | – | – | – | > 100 | – | > 100
C/C(=N\N=C(N)N)C(CN(CC(C)C)CC(C)C)C(=O)Nc1ccc(C)cc1C (stereo not drawn) | – | > 100 | – | > 100 | – | > 100 | – | > 100 | – | > 100 | – | > 100 | – | > 100 | – | > 100 | – | > 100 | – | > 100
COC(=O)C1(C)C=C(Nc2ccccc2)C(=O)N1c1ccccc1 (stereo not drawn) | – | > 100 | – | > 100 | – | – | – | > 100 | – | > 100 | – | > 100 | – | > 100 | – | > 100 | – | > 100 | – | > 100
O=C(O)c1ccc(NC(=O)C2C(=O)C(=O)N(c3ccc(C(=O)O)cc3)C2=O)cc1 (stereo not drawn) | – | > 100 | – | > 100 | – | > 100 | – | > 100 | – | > 100 | – | > 100 | – | > 100 | – | > 100 | – | > 100 | – | > 100
O=C(Nc1ccc(-c2nc3cc4ccccc4cc3[nH]2)cc1)c1cccc(Br)c1 | 2830 | 10.6 | 27500 | 74.8 | 8870 | 40 | 3.89 | > 100 | 7.28 | 20.4 | 12800 | 28.9 | 27.6 | > 100 | – | – | 8.67 | 34.9 | 4 | 11.3
CCn1c(=O)c(-c2ccn[nH]2)cc2c(C)nc(N)nc21 | 1990 | 7.41 | – | – | 1780 | 10.4 | 2.36 | > 100 | 0.575 | 5.91 | 167 | 1.33 | 0.846 | 51 | 2250 | 9.58 | 1.4 | > 100 | 0.871 | 4.62
COc1nc2c(OC)cccc2c(OC)c1C=O | – | > 100 | – | – | – | > 100 | – | > 100 | – | > 100 | – | > 100 | – | > 100 | – | > 100 | – | > 100 | – | > 100
O=C(Nc1ccc(S(=O)(=O)Nc2nccs2)cc1)c1cccnc1Nc1cccc(Cl)c1 | 15300 | 39.8 | 17000 | 52.2 | 18000 | 33.2 | 12.2 | 25.2 | 16.2 | 31.3 | 16900 | 48.1 | 12.5 | 88.9 | – | – | 12.5 | 25.9 | 22.8 | 51.1
O=C1C2C(C(=O)N1O)N(Cc1ccccc1)C(=O)N2Cc1ccccc1 (stereo not drawn) | – | > 100 | – | > 100 | – | > 100 | – | > 100 | – | > 100 | – | > 100 | – | > 100 | – | – | – | > 100 | – | > 100
C=CC1(C)CCC(C(C)C(=O)C(C=C(C)C)OC(C)=O)C12C(=O)Oc1ccccc1C2=O (stereo not drawn) | – | > 100 | – | – | – | > 100 | – | > 100 | – | > 100 | – | > 100 | – | 78.7 | – | > 100 | – | > 100 | – | > 100
CC(C(=O)N1C(=O)N(C(=O)C(C)C(O)c2ccccc2)C(c2ccccc2)C1c1ccccc1)C(O)c1ccccc1 (stereo not drawn) | – | > 100 | – | – | – | 28.1 | – | 26.7 | – | > 100 | – | 32.3 | – | 11.9 | – | 50.2 | – | 37.3 | – | > 100

Source: PubChem BioAssay (NCI)
